In PubChem BioAssay (NCI):
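Values below derive from 48-hour exposures of cells grown in 96-well plates, with endpoints linearly interpolated between the two concentrations bracketing the appropriate inhibition level. TGI denotes the concentration required for complete inhibition of growth.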

Tests used:
Assay in all cases: inhibition of tumour cell growth, NCI panel, 48 h
[1] = system: 786-0 renal
[2] = system: A498 renal
[3] = system: A549 NSCLC
[4] = system: ACHN renal
[5] = system: BT-549 breast
[6] = system: CAKI-1 renal
[7] = system: CCRF-CEM leukemia
[8] = system: COLO 205 colon
[9] = system: DU-145 prostate
[10] = system: EKVX NSCLC
[11] = system: HCT-116 colon
[12] = system: HCT-15 colon
[13] = system: HL-60(TB) leukemia
[14] = system: HOP-62 NSCLC
[15] = system: HOP-92 NSCLC
[16] = system: HS 578T breast
[17] = system: HT29 colon
[18] = system: IGROV1 ovarian
[19] = system: K-562 leukemia
[20] = system: KM12 colon
[21] = system: LOX IMVI melanoma
[22] = system: M14 melanoma
[23] = system: MALME-3M melanoma
[24] = system: MDA-MB-231 breast
[25] = system: MDA-MB-435
[26] = system: MDA-N
[27] = system: MOLT-4 leukemia
[28] = system: NCI-H226 lung
[29] = system: NCI-H23 lung
[30] = system: NCI-H460 lung
[31] = system: NCI-H522 lung
[32] = system: NCI/ADR-RES ovarian
[33] = system: OVCAR-3 ovarian
[34] = system: OVCAR-5 ovarian
[35] = system: OVCAR-8 ovarian
[36] = system: PC-3 prostate
[37] = system: RPMI-8226 leukemia
[38] = system: RXF 393 renal
[39] = system: SF-268 CNS
[40] = system: SF-295 CNS
[41] = system: SF-539 CNS
[42] = system: SK-MEL-2 melanoma
[43] = system: SK-MEL-28 melanoma
[44] = system: SK-MEL-5 melanoma
[45] = system: SK-OV-3 ovarian
[46] = system: SN12C renal
[47] = system: SNB-19 CNS
[48] = system: SNB-75 CNS
[49] = system: SW-620 colon
[50] = system: T-47D breast
[51] = system: TK-10 renal
[52] = system: U251 CNS
[53] = system: UACC-257 melanoma
[54] = system: UACC-62 melanoma
[55] = system: UO-31 renal
[56] = system: HCC-2998 colon
[57] = system: OVCAR-4 ovarian

Measured: TGI

COC(=O)CCCc1c(-c2[nH]c3ccccc3c2CCCC(=O)OC)[nH]c2ccccc12
> 100 µM: [1] | [2] | [3] | [4] | [5] | [6] | [7] | [8] | [9] | [10] | [11] | [12] | [13] | [14] | [15] | [16] | [17] | [18] | [19] | [20] | [21] | [22] | [23] | [24] | [25] | [26] | [27] | [28] | [29] | [30] | [31] | [32] | [33] | [34] | [35] | [36] | [37] | [38] | [39] | [40] | [41] | [42] | [43] | [44] | [45] | [46] | [47] | [48] | [49] | [50] | [51] | [52] | [53] | [54] | [55]

CNc1nc(SC)nc2c1c(N)nn2C
> 100 µM: [1] | [2] | [3] | [4] | [5] | [6] | [7] | [8] | [9] | [56] | [11] | [12] | [14] | [15] | [16] | [17] | [18] | [19] | [20] | [21] | [22] | [23] | [24] | [25] | [26] | [27] | [28] | [29] | [30] | [31] | [32] | [33] | [57] | [34] | [35] | [36] | [37] | [38] | [39] | [40] | [42] | [43] | [44] | [45] | [46] | [47] | [48] | [49] | [50] | [51] | [52] | [53] | [54] | [55]

NNC1=N/C(=C\c2ccccc2O)C(=O)N1
49.6 µM: [13]
> 100 µM: [1] | [2] | [3] | [4] | [5] | [6] | [9] | [10] | [11] | [12] | [14] | [15] | [16] | [17] | [18] | [19] | [20] | [21] | [22] | [23] | [24] | [25] | [26] | [27] | [28] | [29] | [30] | [31] | [32] | [33] | [34] | [35] | [36] | [37] | [38] | [39] | [40] | [41] | [42] | [43] | [44] | [45] | [46] | [47] | [48] | [49] | [51] | [52] | [53] | [54] | [55]
51.9 µM: [7]
77.3 µM: [8]
89.4 µM: [50]
